In one assay the test system is Akt (protein kinase B). Briefly: Insulin-induced phosphorylation of Akt in 3T3-L1 adipocytes (Western blot). Type of assay: cell-based, mouse. The procedure:
(§1) Primary cultures of mouse embryo fibroblasts (3T3-L1) were purchased from ATCC (Manassas, US). Early passages of 3T3-L1 fibroblasts were cultured in Dulbecco's modified Eagle medium ((DMEM, Invitrogen, CAT number: 41966-029; Sigma Aldrich CAT number: D6046) supplemented with 10% Fetal Bovine Serum (Gibco, CAT number: 16170-078), 100 U/ml penicillin and 0.1 mg/ml streptomycin (Gibco, CAT number: 15070-063) and 398 nM p-, m-, or o-Tyr. DMEM contained 25 or 5 mM glucose (depending on the experiment), L-glutamine, and pyruvate. Cells were grown in a humidified incubator at 37° C. and 5% CO2. Differentiation medium consisted of DMEM supplemented with 10% Fetal Bovine Serum (FBS, Gibco, Csertex, Budapest, Hungary, CAT number: 10106-169) (FBS), to which a cocktail was added containing […] isobuthylmethylxanthine (Sigma Aldrich, CAT number: I 5879), 0.17 nM insulin (Sigma Aldrich, CAT number: I 9278) and 250 nM dexamethasone (Sigma Aldrich, CAT number: 861871). From Day 4 onward, cells were maintained in DMEM/10% FBS containing 1.5 pg/ml insulin with a media change every other day until experimental treatments were initiated. For all treatments, cells were incubated overnight in serum-deprived medium after 90% of the cell population reached the adipocyte phenotype.
Following the treatment cells were washed twice with Saline (4° C.) to remove any trace of the medium, then exposed to 80 μL lysis buffer/plate, containing 1.15% Triton X, 1M Trisbase, pH 7.4, 0.5 M EDTA, pH 8, 0.2 M EGTA, pH 7, 0.1 M dithiothreitol (DTT), 5 mg/ml phenylmethylsulfonyl fluoride (PMSF), 0.1 M Na3VO4, 5 mg/ml leupeptin, 5 mg/ml aprotinin, Phoshatase Inhibitor Coctail 1 and 2 (Sigma Aldrich, CAT number: P2850 and P5726). Adypocytes were scraped off mechanically and then frozen at −70° C.
The samples of EC lysates were sonicated (2 min) and centrifuged (10 min, 13,000 rpm, at 4° C.). Protein content of samples was determined by the Bradford method using bovine serum albumin as a standard Bio-Rad Benchmark Plus. Samples were solubilized in a buffer of 100 mM Tris-HCl (pH 6.8), 4.0% sodium dodecyl sulphate (SDS), 20% glycerol, 200 mM DTT, and 0.2% bromophenol blue. […]
Membranes were incubated overnight with the immunoglobulin G (IgG) monoclonal antibodies diluted to 1:1000 in TBS-T (0.1%), containing 5% bovine serum (BS). […] Blots were detected using enhanced chemiluminescence (ECL; Pierce Biotech, Bio-Rad, Budapest, Hungary). Computerized densitometry (integrated optical density) of the specific bands was analyzed with Scion Image for Windows Software. […]

In another assay the test system is Akt (PKB). Briefly: Erythropoietin-dependent phosphorylation of Akt (PKB) in 3T3-L1 adipocytes (Western blot). The class given is cell-based, mouse. Particulars: 25 mM glucose; various concentrations of erythropoietin.
The next assay relates to 3T3-L1 adipocytes. Briefly: Erythropoietin-dependent uptake of deoxy-D-glucose into 3T3-L1 adipocytes. The class given is cell-based, mouse. Particulars: 5 mM glucose; various concentrations of EPO. The procedure: as §1, with “From Day 4 onward, cells were maintained in DMEM/10% FBS containing 1.5 pg/ml insulin with a media change every other day until experimental treatments were initiated. For all treatments, cells were incubated overnight in serum-deprived medium after 90% of the cell population reached the adipocyte phenotype.” left out
[…] The sediment was dissolved in 70 μl of lysis-buffer and glucose uptake was assessed by scintillation counting measuring 30 μl of the sample with a Beckman LS 5000 TD counter in counts per minute (CPM) for five minutes each, using an average activity as the outcome. Samples were frozen overnight at −70° C. and protein concentration was measured using a Hitachi spectrophotometer. […]

In assay [1] the test system is thoracic and abdominal aorta, renal and femoral arteries. Briefly: Insulin-induced relaxation of isolated arterial segments after oral tyrosine isomer supplementation of rats. On the set-up: species or system Sprague-Dawley rats. Particulars: proposed experiment: sustained in vivo supplementation with o-Tyr and p-Tyr together.
Assay [2] is described as follows: Example p-Tyr treatment regimen in a patient (hsCRP, serum insulin, plasma glucose). The class given is in vivo, human. The procedure:
As a further example, a patient attends medical control with a complaint of high blood pressure and increased stress at regular daily work in the last month. In this situation they relate an increased intake of coffein and sugar. Their high sensitivity C-reactive protein (hsCRP) level is measured as well as their serum insulin, and plasma glucose level.

SMILES strings stand for the structures. “Also recorded” adds a separate entry of the source.

Regarding `N[C@@H](Cc1ccccc1O)C(=O)O` [o-Tyr, Ortho-L-tyrosine], the “Insulin-induced Akt phosphorylation” value in the assay on Akt (protein kinase B) (cells grown on m-Tyr or o-Tyr, insulin 200 and 400 nmol/l) is given as “inhibited the insulin-induced Akt-phosphorylation; also recorded: could not be significantly enhanced by insulin”. In addition, the “EPO-dependent Akt phosphorylation” value in the assay with Akt (PKB) is “inhibited the normal increase in the Akt phosphorylation”. In addition, the “EPO-induced glucose uptake compared to the para-Tyr control” value in the assay on 3T3-L1 adipocytes is “inhibited”.
As for `N[C@@H](Cc1ccc(O)cc1)C(=O)O` [p-Tyr, Para-L-tyrosine], the “Diminished response to insulin in isolated arterial segments” value in assay [1] is “reversed”. For the same compound, the “hsCRP, serum insulin and plasma glucose level” value in assay [2] (p-Tyr 3 g daily (three times 1 g), after a month) is “somewhat diminished”; in assay [2] (p-Tyr therapy continued, after a further month), “returned to the medium normal range”. Moreover, the “Insulin-induced Akt phosphorylation” value in the assay on Akt (protein kinase B) (cells grown on high glucose media with p-Tyr only) is reported as “significantly lower Akt-phosphorylation”. In the assay with Akt (protein kinase B) (cells grown on p-Tyr and low glucose, increasing doses of insulin), the “Increase in Akt (protein kinase B) phosphorylation by insulin compared to controls” value is 3 fold.
